Assay results published in patent US12600727B2, “Treatment of infections of toxoplasma gondii and closely related parasites” (WASHINGTON UNIVERSITY, priority 2018, dated 2026).
Where two headings read alike, the source gives them in different places.

Experiments:
[1] = tested on: Toxoplasma gondii tachyzoites (ME49-FLUC, type 2); experiment: T. gondii ME49-FLUC tachyzoite growth inhibition in HFF, luciferase assay; format: cell-based; conditions: T. gondii ME49-FLUC (type 2) tachyzoites in HFF
Description: Toxoplasma gondii tachyzoites (ME49-FLUC, type 2) (27) were serially passaged in human foreskin fibroblasts (HFF) cultured in complete DMEM medium (DMEM supplemented with 10% fetal bovine serum (FBS), glutamine (10 mM) and gentamycin (10 μg/mL)). For each assay described, infected monolayers were scraped, needle passed (23 ga), and parasites were separated from host cell debris using a three (3) micron pore polycarbonate filter. HeLa cells were cultured in MEM media that contained 10% FBS, 4 mM L-glutamine and 10 mM HEPES solution. Cell culture and assays were conducted using a 37° C. incubator with 5% CO2. Cell cultures were negative for mycoplasma, as determined using the e-Myco plus kit (Intron Biotechnology).
White, clear bottom 96-well assay plates were set up as described above with the following modifications. Only the inner 60 wells were used for the assay in order to reduce variability that results from evaporation during incubation. Dilution of compound stock is as described above, with all wells containing a final concentration of 0.1% DMSO. DMSO (vehicle control) and pyrimethamine (2.5 μM, positive control) were included in the outside wells of all plates as controls. Liquid handling (serial dilutions, compound dilutions, cell feeding, plate-to-plate transfers, etc.) utilized a Dual Pod Biomek FX. Luciferase assays were performed using the integrated and automated platform (Beckman Coulter). The SAMI EX software was used to design and execute the screening assay and enabled efficient and uniform assay execution across all the assay plates.

[2] = tested on: Neospora caninum parasites (NC-1 strain); experiment: N. caninum (NC-1, lac-Z) growth inhibition in HFF, β-Gal assay; format: cell-based; conditions: 72 h
Description: Neospora caninum parasites (NC-1 strain) expressing a lac-Z transgene (1) were serially passaged as tachyzoites in human foreskin fibroblasts cultured in DMEM supplemented with 10% fetal bovine serum (FBS), glutamine (10 mM) and gentamycin (10 μg/mL). Mature cultures were scraped, syringe passed using a 25 g needle to release parasites, filtered through a 3 micron polycarbonate filter to remove host cell debris and counted prior to each assay. All cultures were maintained in a 37° C. incubator with 5% CO2 and were verified mycoplasma free using the e-Myco plus Mycoplasma PCR detection kit (Boca Scientific).
Compounds were prepared as 10 mM stock in 100% DMSO. Pyrimethamine (positive control) and DMSO were included as controls in all plates and all replicates. The EC50 values were determined using a 10-point dose response curve using a 2-fold dilution series from 5.0 μM to 0.01 μM across the plate. Experiments were conducted in 96-well plates containing confluent HFF cells. Each assay plate was inoculated with 1×10^3 parasites (100 μL) containing 100 μL of 2× compound and incubated for 72 h prior to preparation for the j-Gal assay as described in Seeber, F. et al., Gene 169 (1996): 39-45, hereby incorporated by reference in its entirety and particularly in relation to the β-Gal assay protocol. Briefly, culture medium was replaced, wells rinsed with 200 μL of PBS followed by incubation with 50 μL of lysis buffer (100 mM HEPES, 1 mM MgSO4, 1% Triton X-100, 5 mM DTT) for 10 min at 50° C.
EC50 values determined from 10-point dose response curve (5 μM-0.01 μM) and presented as the average of three biological replicates. Linear regression and dose response inhibition (log ([compound]) vs normalized response-variable slope) were performed with Prism 8 for Mac (Graphpad Software, Inc.) and both the fits and data are shown in FIG. 1. Values represent the average of three biological replicates each with two internal replicates and are plotted as mean±S.E.M.

[3] = N. caninum NC-1 lac-Z, 10-point dose response 5 μM-0.01 μM, average of three biological replicates, read-out: EC50

| SMILES | EC50 [1] [nM] | EC50 [2, 3] [nM] | EC50 [2] [nM] |
| --- | --- | --- | --- |
| COc1ccc(NC(=O)N2CCCCN3[C@H](CN4CCN(C)CC4)[C@H](c4ccc(C#Cc5ccccc5)cc4)[C@@H]3C2)cc1 [Compound 1, (8R,9S,10S)-N-(4-methoxyphenyl)-10-((4-methylpiperazin-1-yl)methyl)-9-(4-(phenylethynyl)phenyl)-1,6-diazabicyclo[6.2.0]decane-6-carboxamide] | 425 |  |  |
| COc1ccc(NC(=O)N2CCCCN3[C@H](COCCC(=O)O)[C@H](c4ccc(C#Cc5ccccc5)cc4)[C@@H]3C2)cc1 [Compound 2, 3-(((8R,9R,10S)-6-((4-methoxyphenyl)carbamoyl)-9-(4-(phenylethynyl)phenyl)-1,6-diazabicyclo[6.2.0]decan-10-yl)methoxy)propanoic acid] | 64.3 |  |  |
| O=C(NC1CCC1)N1CCCCN2[C@H](CO)[C@H](c3ccc(C#Cc4ccccc4)cc3)[C@@H]2C1 [Compound 3, (8R,9R,10S)-N-cyclobutyl-10-(hydroxymethyl)-9-(4-(phenylethynyl)phenyl)-1,6-diazabicyclo[6.2.0]decane-6-carboxamide] | 2580 |  |  |
| COc1ccc(NC(=O)N2CCCCN3[C@H](CN(C)S(C)(=O)=O)[C@H](c4ccc(C#Cc5ccccc5)cc4)[C@@H]3C2)cc1 [Compound 4, (8R,9R,10S)-N-(4-methoxyphenyl)-10-((N-methylmethylsulfonamido)methyl)-9-(4-(phenylethynyl)phenyl)-1,6-diazabicyclo[6.2.0]decane-6-carboxamide] | 34.8 |  |  |
| COc1ccc(NC(=O)N2CCCCN3[C@H](CN(C)CCF)[C@H](c4ccc(C#Cc5ccccc5)cc4)[C@@H]3C2)cc1 [Compound 5, (8R,9S,10S)-10-(((2-fluoroethyl)(methyl)amino)methyl)-N-(4-methoxyphenyl)-9-(4-(phenylethynyl)phenyl)-1,6-diazabicyclo[6.2.0]decane-6-carboxamide] | 89.5 |  |  |
| COc1ccc(NC(=O)N2CCCCN3[C@@H](C2)[C@@H](c2ccc(C#Cc4ccccc4)cc2)[C@@H]3CN(C)S(C)(=O)=O)cc1 [Compound 6, (8R,9R,10R)-N-(4-methoxyphenyl)-10-((N-methylmethylsulfonamido)methyl)-9-(4-(phenylethynyl)phenyl)-1,6-diazabicyclo[6.2.0]decane-6-carboxamide] | 40 | 60 |  |
| COc1ccc(NC(=O)N2CCCCN3[C@H](CO)[C@H](c4ccc(C#CC5CC5)cc4)[C@@H]3C2)cc1 [Compound 7, (8R,9R,10S)-9-(4-(cyclopropylethynyl)phenyl)-10-(hydroxymethyl)-N-(4-methoxyphenyl)-1,6-diazabicyclo[6.2.0]decane-6-carboxamide] | 1610 |  |  |
| COc1ccc(NC(=O)N2C[C@H](O)[C@H](O)CN3[C@H](CN(C)C)[C@H](c4ccc(C#Cc5ccccc5)cc4)[C@@H]3C2)cc1 [Compound 8, (3R,4S,8R,9S,10S)-10-((dimethylamino)methyl)-3,4-dihydroxy-N-(4-methoxyphenyl)-9-(4-(phenylethynyl)phenyl)-1,6-diazabicyclo[6.2.0]decane-6-carboxamide] | 39.3 | 30 |  |
| COC[C@@H]1[C@H](c2ccc(C#Cc3ccccc3)cc2)[C@@H]2CN(C(=O)Nc3ccc(OC)cc3)CCCCN12 [Compound 9, (8R,9R,10S)-10-(methoxymethyl)-N-(4-methoxyphenyl)-9-(4-(phenylethynyl)phenyl)-1,6-diazabicyclo[6.2.0]decane-6-carboxamide] | 50.4 |  |  |
| O=C(Nc1cccc(F)c1)N1CCCCN2[C@H](CO)[C@H](c3ccc(C#Cc4cccnc4)cc3)[C@@H]2C1 [Compound 10, (8R,9R,10S)-N-(3-fluorophenyl)-10-(hydroxymethyl)-9-(4-(pyridin-3-ylethynyl)phenyl)-1,6-diazabicyclo[6.2.0]decane-6-carboxamide] | 493 |  |  |
| COc1ccc(NC(=O)N2CCCCN3[C@H](CO)[C@H](c4ccc(C#Cc5ccccc5)cc4)[C@]3(CO)C2)cc1 [Compound 11, (8R,9S,10S)-8,10-bis(hydroxymethyl)-N-(4-methoxyphenyl)-9-(4-(phenylethynyl)phenyl)-1,6-diazabicyclo[6.2.0]decane-6-carboxamide] | 1690 |  |  |
| COc1ccc(NC(=O)N2CCCCN3[C@H](CO)[C@H](c4ccc(C#Cc5ccccc5C#N)cc4)[C@@H]3C2)cc1 [Compound 12, (8R,9R,10S)-9-(4-((2-cyanophenyl)ethynyl)phenyl)-10-(hydroxymethyl)-N-(4-methoxyphenyl)-1,6-diazabicyclo[6.2.0]decane-6-carboxamide] | 213 |  |  |
| COc1ccc(NC(=O)N2CCCCN3[C@@H](CO)[C@H](c4ccc(C#Cc5ccccn5)cc4)[C@@H]3C2)cc1 [Compound 13, (8R,9R,10R)-10-(hydroxymethyl)-N-(4-methoxyphenyl)-9-(4-(pyridin-2-ylethynyl)phenyl)-1,6-diazabicyclo[6.2.0]decane-6-carboxamide] | 646 |  |  |
| CN(C[C@@H]1[C@H](c2ccc(C#Cc3ccccc3)cc2)[C@@H]2CN(C(=O)Nc3ccc(OC4CC4)cc3)CCCCN12)S(C)(=O)=O [Compound 14, (8R,9R,10S)-N-(4-cyclopropoxyphenyl)-10-((N-methylmethylsulfonamido)methyl)-9-(4-(phenylethynyl)phenyl)-1,6-diazabicyclo[6.2.0]decane-6-carboxamide] | 18.5 | 37 |  |
| COc1ccc(NC(=O)N2CCCCN3C[C@H](c4ccc(C#Cc5ccccc5)cc4)[C@@H]3C2)cc1 [Compound 16] | 77 | 193 |  |
| COc1ccc(NC(=O)N2CCCCN3[C@H](CN4CCC4)[C@H](c4ccc(C#Cc5ccccc5)cc4)[C@@H]3C2)cc1 [Compound 17, (8R,9S,10S)-10-(azetidin-1-ylmethyl)-N-(4-methoxyphenyl)-9-(4-(phenylethynyl)phenyl)-1,6-diazabicyclo[6.2.0]decane-6-carboxamide] | 442 |  |  |
| COc1ccc(NC(=O)N2CCCCN3[C@H](CO)[C@H](c4ccc(C#Cc5ccccc5)cc4)[C@@H]3C2)cc1 [Compound 18, (8R,9R,10S)-10-(hydroxymethyl)-N-(4-methoxyphenyl)-9-(4-(phenylethynyl)phenyl)-1,6-diazabicyclo[6.2.0]decane-6-carboxamide] | 28.9 |  |  |
| OC[C@@H]1[C@H](c2ccc(C#Cc3ccccc3)cc2)[C@@H]2CN(c3nc4ccccc4s3)CCCCN12 [Compound 19, ((8R,9R,10S)-6-(benzo[d]thiazol-2-yl)-9-(4-(phenylethynyl)phenyl)-1,6-diazabicyclo[6.2.0]decan-10-yl)methanol] | 3940 |  |  |
| COc1ccc(NC(=O)N2CCCCCN3[C@H](CO)[C@H](c4ccc(C#Cc5ccccc5)cc4)[C@@H]3C2)cc1 [Compound 20, (9R,10R,11S)-11-(hydroxymethyl)-N-(4-methoxyphenyl)-10-(4-(phenylethynyl)phenyl)-1,7-diazabicyclo[7.2.0]undecane-7-carboxamide] | 169 | 157 |  |
| COc1ccc(NC(=O)N2CCCN3[C@H](CO)[C@H](c4ccc(C#Cc5ccccc5)cc4)[C@@H]3C2)cc1 [Compound 21, (7R,8R,9S)-9-(hydroxymethyl)-N-(4-methoxyphenyl)-8-(4-(phenylethynyl)phenyl)-1,5-diazabicyclo[5.2.0]nonane-5-carboxamide] | 1750 |  |  |
| CCc1nc(N)nc(N)c1-c1ccc(Cl)cc1 [Pyrimethamine (Pyr), Pyrimethamine, reference compound] |  |  | 263 |
